Experimental data taken from patent US8013006B2.
Read-outs that look alike come from different tables or passages of the source.

Tested on: HCV replicon
Assay: microbe, parasite or virus in culture
Format: cell-based
[1] = Replicon IC50 values are determined by firefly luciferase signal, bicistronic replicon, 2 days, read-out: Replicon IC5Os

Compound | IC50 (Hepatitis C virus, 48 h, read-out: Replicon IC5Os μM) [µM] | IC50 [1] [µM]
CC(=O)OCc1c(OC(C)=O)ccc2c([N+](=O)[O-])c(C)n(-c3ccc(C)cc3)c12 [Compound 1] | > 2 | –
COc1ccc(-n2c(C)c([N+](=O)[O-])c3cc(CN(C)C)c(O)cc32)cc1 [Compound 3] | – | > 2
CC(C)n1cc(C#N)c2ccc(O)cc21 [Compound 6] | – | > 2
COc1ccc2c(C#N)cn(-c3ccc(C)c(C)c3)c2c1 [Compound 8] | – | 0.5 to 2
CCCCOc1ccc2c(C#N)cn(CC)c2c1 [Compound 11] | – | > 2
CCn1cc(C#N)c2ccc(OCc3ccccc3)cc21 [Compound 12] | – | 0.5 to 2
CCOC(=O)c1cn(CC)c2cc(OC)ccc12 [Compound 17] | – | > 2
CCn1cc(C#N)c2ccc(OC(F)F)cc21 [Compound 18] | – | > 2
CCn1c(-c2ccoc2)c(C#N)c2ccc(OC)cc21 [Compound 20] | – | > 2
CCn1c(-c2ccccc2)c(C#N)c2ccc(OC)cc21 [Compound 21] | – | > 2
CCn1cc(C#N)c2ccc(-n3cccc3)cc21 [Compound 27] | – | 0.5 to 2
CCn1cc(-c2noc(C3CC3)n2)c2ccc(OC)cc21 [Compound 29] | – | > 2
CCNc1c(C(=O)OC)c2ccc([N+](=O)O)cc2n1CC [Compound 30] | – | > 2
CCn1cc(C(=O)c2ccccc2)c2cc(OC)ccc21 [Compound 32] | – | > 2
CCn1cc(C(=O)c2ccccc2)c2ccc(OC)cc21 [Compound 33] | – | > 2
CCC(=O)c1cn(CC)c2cc(OC)ccc12 [Compound 34] | – | > 2
CCn1cc(C(=O)C(C)C)c2ccc(OC)cc21 [Compound 37] | – | > 2
CCn1cc(C(=O)c2cccc(OC)c2)c2ccc(OC)cc21 [Compound 38] | – | > 2
CCn1cc(C(=O)c2cccc(OC)c2)c2cc(OC)ccc21 [Compound 39] | – | > 2
COc1ccc(-c2c[nH]c3ccc([N+](=O)O)cc23)cc1 [Compound 40] | – | > 2
COc1ccc(-n2cc(C(C)=O)c3cc(OC)ccc32)cc1 [Compound 42, 1-[5-methoxy-1-(4-methoxyphenyl)-1-H-indol-3-yl]-ethanone] | – | > 2
CC(C)n1cc(C#N)c2cc3c(cc21)OCO3 [Compound 43] | – | > 2
CCOC(=O)c1c(C)n(-c2ccc(OC)cc2)c2cc(OC(F)F)ccc12 [Compound 46] | – | > 2
COc1ccc(-n2cc(C(=O)c3ccc(F)cc3)c3ccc(OC)cc32)cc1 [Compound 47] | – | > 2

Compound | IC50 (Hepatitis C virus, 48 h, read-out: Replicon IC5Os μM) [µM] | IC50 [1] [µM]
N#Cc1cn(C(F)F)c2cc(OC(F)F)ccc12 [Compound 50] | – | > 2
CC(C)n1cc(C#N)c2cc3c(cc21)OCCO3 [Compound 52] | – | > 2
CCn1cc(-c2ccno2)c2ccc(C(=O)OC)cc21 [Compound 60] | – | > 2
CCn1cc(-c2ccn[nH]2)c2ccc(C(=O)OC)cc21 [Compound 61] | – | > 2
CCOC(=O)c1cn(CC)c2cc3c(cc12)OCO3 [Compound 62] | – | > 2
CCn1c(-c2ccc(C(C)(C)C)cc2)c(C#N)c2ccc(OC)cc21 [Compound 63] | – | > 2
CCn1c(C#Cc2ccccc2)c(C#N)c2ccc(OC)cc21 [Compound 64] | – | > 2
CCn1c(C#Cc2ccc(OC)cc2)c(C#N)c2ccc(OC)cc21 [Compound 65] | – | 0.5 to 2
CCn1c(C#Cc2cccc(OC)c2)c(C#N)c2ccc(OC)cc21 [Compound 66] | – | > 2
CCn1c(C#Cc2ccc(C)cc2)c(C#N)c2ccc(OC)cc21 [Compound 68] | – | 0.5 to 2
CCOc1ccc(-c2c(C#N)c3ccc(OC)cc3n2CC)cc1 [Compound 70] | – | > 2
CCn1c(-c2ccc(C(=O)N(C)C)cc2)c(C#N)c2ccc(OC)cc21 [Compound 71] | – | > 2
CCn1c(-c2ccc(OC)c(F)c2)c(C#N)c2ccc(OC)cc21 [Compound 74] | – | > 2
COc1ccc(-c2c(C#N)c3ccc(OC)cc3n2C)cc1 [Compound 76] | – | > 2
CCOc1ccc(-c2c(C#N)c3ccc(OC)cc3n2C)cc1 [Compound 77] | – | > 2
CCn1cc(-c2nccs2)c2ccc(C(=O)OC)cc21 [Compound 78] | – | > 2
CCn1c(-c2ccc(C(C)C)cc2)c(C#N)c2ccc(C(N)=O)cc21 [Compound 79] | – | > 2
CCn1c(-c2ccc(NS(=O)(=O)CC)cc2)c(C#N)c2ccc(OC)cc21 [Compound 83] | – | < 0.5
COc1ccc2c(C#N)c(-c3ccc(NS(C)(=O)=O)cc3)n(C3CCC3)c2c1 [Compound 87] | – | < 0.5
COc1ccc(-n2cc(C#N)c3ccc(C(=O)NO)cc32)cc1 [Compound 89] | – | 0.5 to 2
COc1ccc(-n2cc(C#N)c3ccc(NC(=O)OC(C)(C)C)cc32)cc1 [Compound 90] | – | > 2
COc1ccc(C#Cc2c(C#N)c3ccc(OC)cc3n2C)cc1 [Compound 92] | – | > 2
COc1ccc2c(C#N)c(C#Cc3ccc(F)cc3)n(C)c2c1 [Compound 93] | – | > 2
COc1ccc(-n2cc(C#N)c3ccc(NC(=O)NC(C)(C)C)cc32)cc1 [Compound 98] | – | > 2

Compound | IC50 (Hepatitis C virus, 48 h, read-out: Replicon IC5Os μM) [µM] | IC50 [1] [µM]
COc1ccc2c(C#N)c(-c3cccc(C)c3)n(C)c2c1 [Compound 100] | – | > 2
COc1ccc(-n2cc(C#N)c3ccc(F)cc32)cc1 [Compound 102] | – | > 2
COc1ccc(-n2cc(C#N)c3ccc(C)cc32)cc1 [Compound 103] | – | > 2
COc1ccc(-n2cc(-c3nc(C(C)(C)C)cs3)c3ccc(C(N)=O)cc32)cc1 [Compound 104] | – | 0.5 to 2
COC(=O)c1ccc2c(-c3nc(-c4ccncc4)cs3)cn(-c3ccc(OC)cc3)c2c1 [Compound 105] | – | > 2
COc1ccc(-n2cc(-c3nc(-c4ccc(Cl)c(Cl)c4)cs3)c3ccc(C(N)=O)cc32)cc1 [Compound 106] | – | > 2
CCn1cc(C#N)c2cc(Br)ccc21 [Compound 108] | – | > 2
CCCn1cc(C#N)c2cc(Br)ccc21 [Compound 109] | – | > 2
CCOC(=O)c1ccc(-c2c(C#N)c3ccc(OC)cc3n2CC)cc1 [Compound 110] | – | 0.5 to 2
Cc1ccc2c(C#N)cn(-c3ccc4c(c3)OCO4)c2c1 [Compound 112] | – | 0.5 to 2
CCn1c(-c2ccc(C(=O)N3CCCC3)cc2)c(C#N)c2ccc(OC)cc21 [Compound 113] | – | > 2
CCn1c(-c2ccc(C(=O)N3CCOCC3)cc2)c(C#N)c2ccc(OC)cc21 [Compound 114] | – | > 2
N#Cc1c[nH]c2cc(Cl)ccc12 [Compound 115] | – | > 2
COc1ccc(-n2cc(C#N)c3ccccc32)cc1 [Compound 117] | – | > 2
CCn1cc(C#N)c2ccc(Cl)cc21 [Compound 118] | – | 0.5 to 2
CCn1c(-c2ccc(NC(=O)OCc3ccccc3)cc2)c(C#N)c2ccc(OC)cc21 [Compound 122] | – | > 2
CCn1cc(C#N)c2ccc(C(F)(F)F)cc21 [Compound 123] | – | > 2
Cc1ccc2c(C#N)c(C)n(-c3ccc4c(c3)OCO4)c2c1 [Compound 125] | – | 0.5 to 2
CCn1cc(C#N)c2ccc(Br)cc21 [Compound 126] | – | > 2
COc1ccc(-n2cc(C#N)c3ccc(Br)cc32)cc1 [Compound 127] | – | > 2
CCn1c(C#Cc2cccc3ccccc23)c(C#N)c2ccc(OC)cc21 [Compound 133] | – | 0.5 to 2
CCn1c(C#Cc2ccccc2Br)c(C#N)c2ccc(OC)cc21 [Compound 136] | – | 0.5 to 2
CCn1c(C#Cc2ccc(OC)cc2C)c(C#N)c2ccc(OC)cc21 [Compound 137] | – | 0.5 to 2
CCn1cc(C#N)c2cc(-c3cccs3)ccc21 [Compound 140] | – | > 2

Compound | IC50 (Hepatitis C virus, 48 h, read-out: Replicon IC5Os μM) [µM] | IC50 [1] [µM]
CCn1cc(C#N)c2cc(-c3ccoc3)ccc21 [Compound 142] | – | > 2
CCn1c(C#Cc2ccc(N3CCCCC3)cc2)c(C#N)c2ccc(OC)cc21 [Compound 143] | – | > 2
CCn1c(C#Cc2cccc(Cl)c2)c(C#N)c2ccc(OC)cc21 [Compound 146] | – | 0.5 to 2
CCn1c(C#Cc2ccc(N(C)C)cc2)c(C#N)c2ccc(OC)cc21 [Compound 147] | – | 0.5 to 2
CCn1c(C#Cc2ccc(Cl)cc2)c(C#N)c2ccc(OC)cc21 [Compound 148] | – | 0.5 to 2
CCOc1ccc(C#Cc2c(C#N)c3ccc(OC)cc3n2CC)cc1 [Compound 149] | – | 0.5 to 2
CCn1c(C#Cc2ccccc2F)c(C#N)c2ccc(OC)cc21 [Compound 150] | – | 0.5 to 2
CCn1c(C#Cc2cccc(F)c2)c(C#N)c2ccc(OC)cc21 [Compound 151] | – | 0.5 to 2
CCn1c(C#Cc2ccc(NC(=O)C(C)C)cc2)c(C#N)c2ccc(OC)cc21 [Compound 152] | – | > 2
CCn1c(C#Cc2ccc(OC)c(OC)c2)c(C#N)c2ccc(OC)cc21 [Compound 159] | – | 0.5 to 2
CCn1c(C#Cc2ccc(NC(=O)[C@@H]3CCCN3)cc2)c(C#N)c2ccc(OC)cc21 [Compound 162] | – | > 2
CCn1c(C#Cc2ccc(NC(=O)c3c[nH]cn3)cc2)c(C#N)c2ccc(OC)cc21 [Compound 163] | – | 0.5 to 2
CCC(=O)Nc1ccc(C#Cc2c(C#N)c3ccc(O)cc3n2CC)cc1 [Compound 164] | – | 0.5 to 2
CCn1c(C#Cc2ccc(NC(=O)CN)cc2)c(C#N)c2ccc(OC)cc21 [Compound 165] | – | > 2
CCn1c(C#Cc2ccccc2N)c(C#N)c2ccc(OC)cc21 [Compound 169] | – | 0.5 to 2
CCn1c(C#Cc2cccs2)c(C#N)c2ccc(OC)cc21 [Compound 170] | – | 0.5 to 2
CCn1c(C#Cc2ccsc2)c(C#N)c2ccc(OC)cc21 [Compound 171] | – | 0.5 to 2
CCn1c(C#Cc2ccccn2)c(C#N)c2ccc(OC)cc21 [Compound 174] | – | 0.5 to 2
CCn1c(C#Cc2ccc(OC)cc2)c(C#N)c2cc(OC)ccc21 [Compound 177] | – | 0.5 to 2
CCn1c(C#Cc2ccc(C(F)(F)F)cc2)c(C#N)c2cc(OC)ccc21 [Compound 178] | – | > 2
CCn1cc(C#N)c2cc(C(F)(F)F)ccc21 [Compound 179] | – | 0.5 to 2
CCn1c(-c2ccc(N(C)S(=O)(=O)CC)cc2)c(C#N)c2ccc(OC)cc21 [Compound 181] | – | 0.5 to 2
CCn1c(C#Cc2cccc3ccccc23)c(C#N)c2ccc(O)cc21 [Compound 184] | – | 0.5 to 2
CCn1c(C#Cc2ccc(OC)cc2)c(C#N)c2ccc(O)cc21 [Compound 186] | – | 0.5 to 2
